For this assay, the system named is A498 complex spheroids with HUVEC/MSC, growth. Description: Anticancer human tumor A498 cell line growth inhibition [AhR].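 For all read-outs here: seven day exposure starting three days after spheroid seeding.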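 For viability, T/C: luminescence signal used as a surrogate for viable cells; luminescence viability scaled so 100% equals DMSO vehicle wells.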 The following applies: for viability, T/C: stronger effect = lower value. The source says:
Multicellular complex tumor spheroid response to aryl hydrocarbon receptor antagonists in combination with a variety of drugs and investigational agents in selected tumor cell lines
The current study was undertaken to assess response to aryl hydrocarbon receptor antagonists in combination with standard-of-care drugs and investigational agents in solid tumor complex spheroid models. Complex spheroids include a stromal component modeled by human endothelial cells (HUVEC) and fibroblasts modeled by human mesenchymal stem cells (MSCs). The concentration ranges selected for each drug and investigational agent were based upon clinically achievable concentrations if the clinical Cmax of the agent was known.
Compounds. The drugs and investigational agents: BAY 2416964 (NSC825713), GNF351 (NSC835774), CH-223191 (NSC835775), CPI-455 (NSC825282), aza-TdCyd (NSC777586), decitabine (NSC127716), belinostat (NSC758774), entinostat (NSC756642), pevonedistat (NSC761192), tazemetostat (NSC777109), talazoparib (NSC765396), olaparib (NSC753686), selinexor (NSC780203), nedisertib (M3814, NSC802822), bortezomib (NSC756655), venetoclax (NSC766270), doxorubicin (NSC123127), elimusertib (BAY189344, NSC800525), ceralasertib (AZD6738, NSC777638), TAK-243 (NSC785004), alisertib (NSC759677), etoposide (NSC141540), topotecan (NSC609699), eribulin (NSC707389), gemcitabine (NSC613327), carboplatin (NSC241240), cisplatin (NSC119875), and SN-38 (NSC673596) were obtained from the National Cancer Institute (NCI) Developmental Therapeutics Program Chemical Repository (32). The FDA-approved anticancer drug set is available from the Developmental Therapeutics Program at https://dtp.cancer.gov/organization/dscb/obtaining/available plates.htm. […] The stock solutions were prepared in dimethyl sulfoxide (DMSO, Sigma-Aldrich, St. Louis, MO, cat. D2650), except for the platinum compounds which were prepared in saline (Quality Biological, Gaithersburg, MD, cat. 114-055-101), at 800-fold the tested concentration and stored at -70 degrees C prior to their use. All drugs and investigational agents were tested over a range starting from a high concentration at or near the clinical Cmax and decreasing in half-log increments. If the clinical Cmax for an agent had not been determined, the highest concentration tested was 10 microM (Table 1).
Cell Culture. All cells were maintained in an incubator at 37 degrees C and 5% CO2 with 95% humidity. The PDC lines were cultured according to standard operating procedures established by the NCI PDMR (https://pdmr.cancer.gov). Briefly, all PDCs were thawed and cultured in Matrigel-coated flasks prepared with a working solution of 1X Ham's F-12 nutrient mix, without supplementation (Invitrogen, Waltham, MA, cat. 11765054), 100 U/mL penicillin-streptomycin (Invitrogen, cat. 15140122), and 2.5% Matrigel (Corning Inc., Corning, NY, cat. 354248) for the first three passages. All PDCs were cultured in complete DMEM/F-12 media containing advanced DMEM/F-12 (Invitrogen, cat. 12634028), 4.9% defined fetal bovine serum, heat inactivated (HyClone Laboratories Inc., Logan, UT, cat. SH30070.03HI), 389 ng/mL hydrocortisone (Sigma-Aldrich, cat. H4001), 9.7 ng/mL human EGF recombinant protein (Invitrogen, cat. PHG0313), 23.4 microg/mL adenine (Sigma-Aldrich, cat. A2786), 97.3 U/mL penicillin-streptomycin (Invitrogen, cat. 15140122), 1.9 mM L-glutamine (Invitrogen, cat. 25030081), and 9.7 microM Y-27632 dihydrochloride (Tocris Bioscience, Bristol, United Kingdom, cat. 1254). The PDCs were cultured in complete DMEM/F12 media without 10 microM Y-27632 dihydrochloride for at least two passages prior to the screen. The established cell lines NCI-H1341 and […] were cultured in DMEM/F-12, HEPES (Invitrogen, cat. 11330032), 5% defined fetal bovine serum (HyClone Laboratories Inc., cat. SH30070.03), ITS premix universal culture supplement [insulin (5 microg/mL), transferrin (5 microg/mL), and selenious acid (5 ng/mL)] […]

Where “and” joins values, the source holds several entries; their conditions need not be identical. Identical values can stand only once.

As for `CC(C)c1c(-c2ccccc2)nc2c(C#N)c[nH]n2c1=O`, the viability, T/C (compound 0.0316 µM) was 109% and 96.5% and 102%; the viability, T/C (compound 0.1 µM) is 113% and 109% and 96%; the viability, T/C (compound 0.316 µM) is 104% and 105% and 96.3%; the viability, T/C (compound 1 µM) was 99.8% and 104% and 97.1%; the viability, T/C (compound 3.16 µM) was 102% (2×) and 98.6%; the viability, T/C (compound 10 µM) is 106% and 112% and 96.8%. The IC50 (curve of compound) is > 10000 nM.

Regarding `CC(CO)NC(=O)c1cc(-c2ccc(Cl)cc2)nn(-c2cnn(C)c2)c1=O` (stereo not drawn), the viability, T/C (compound 0.1 µM) was 92.3% [middle of 20 runs]; the viability, T/C (compound 0.316 µM) is 90.5% [middle of 21 runs]; the viability, T/C (compound 1 µM) was 85.9% [middle of 21 runs]; the viability, T/C (compound 3.16 µM) was 83.2% [middle of 19 runs]; the viability, T/C (compound 10 µM) was 68.4% [middle of 19 runs]. Besides, the IC50 (compound alone, run of 08/08/2022) is > 10000 nM.

As to `CC1COCCN1c1cc(C2(S(C)(=N)=O)CC2)nc(-c2ccnc3[nH]ccc23)n1` (stereo not drawn), the viability, T/C by setting is: (compound 0.0316 µM) 106% and 101% (2×); (compound 0.1 µM) 111% and 103% and 107%; (compound 0.316 µM) 104% and 99.8% and 95.7%; (compound 1 µM) 92.2% and 72.5% and 72.7%; (compound 3.16 µM) 61% and 46.5% and 37%; (compound 10 µM) 29% and 24.8% and 19.5%. The IC50 (curve of compound) is 4680 nM and 2570 nM and 2070 nM.

As to `COc1ccc([C@@H](O)c2cc(-c3ncnc4cc(N5CCOCC5)ccc34)c(F)cc2Cl)nn1`, the viability, T/C (compound 0.0316 µM) was 96.5% and 95.1% and 98.9%; the viability, T/C (compound 0.1 µM) was 92% and 80.4% and 92.3%; the viability, T/C (compound 0.316 µM) is 64.8% and 60.7% and 62%; the viability, T/C (compound 1 µM) was 40.2% and 59.5% and 30.9%; the viability, T/C (compound 3.16 µM) was 23.1% and 19.5% and 17.6%; the viability, T/C (compound 10 µM) was 12.3% and 7.92% and 9.02%. The half-inhibitory concentration (IC50) (curve of compound) was 654 nM and 887 nM and 508 nM.

On to `Cc1ccccc1N=Nc1ccc(NC(=O)c2ccnn2C)c(C)c1`, for which the viability, T/C is 88.8% [middle of 20 runs] (compound 0.1 µM); 96.8% [middle of 20 runs] (compound 0.316 µM); 89.2% [middle of 20 runs] (compound 1 µM); 84.9% [middle of 20 runs] (compound 3.16 µM); 86.3% [middle of 20 runs] (compound 10 µM). Moreover, the concentration for half-maximal inhibition (IC50) (compound alone, run of 08/22/2022) is > 10000 nM.

`Cc1cncc(-c2nc(NCCc3c[nH]c4ccccc34)c3ncn(C(C)C)c3n2)c1`: the viability, T/C was 90% [middle of 20 runs] (compound 0.1 µM), 95.3% [middle of 20 runs] (compound 0.316 µM), 87.7% [middle of 20 runs] (compound 1 µM) and 4.87% [middle of 19 runs] (compound 10 µM). Further, the IC50 (compound alone, run of 08/16/2022) is 3.7 µM [middle of 24 runs].

As for `COc1cccc2c1C(=O)c1c(O)c3c(c(O)c1C2=O)CC(O)(C(=O)CO)CC3OC1CC(N)C(O)C(C)O1` (stereo not drawn) + CC(CO)NC(=O)c1cc(-c2ccc(Cl)cc2)nn(-c2cnn(C)c2)c1=O, the IC50 was 129 nM (curve of first compound, second compound 0.1 µM); 148 nM (curve of first compound, second compound 0.316 µM); 231 nM (curve of first compound, second compound 1 µM); 119 nM (curve of first compound, second compound 3.16 µM); < 31.6 nM (curve of first compound, second compound 10 µM). The viability, T/C was 55.1% (second compound 0.1 µM, first compound 0.0316 µM); 55.6% (second compound 0.1 µM, first compound 0.1 µM); 37.6% (second compound 0.1 µM, first compound 0.316 µM); 16.1% (second compound 0.1 µM, first compound 1 µM); 2.16% (second compound 0.1 µM, first compound 3.16 µM); 0.7% (second compound 0.1 µM, first compound 10 µM). In addition, the viability, T/C runs as follows: (second compound 0.316 µM, first compound 0.0316 µM) 55%; (second compound 0.316 µM, first compound 0.1 µM) 53.3%; (second compound 0.316 µM, first compound 0.316 µM) 43.3%; (second compound 0.316 µM, first compound 1 µM) 16.4%; (second compound 0.316 µM, first compound 3.16 µM) 2.65%; (second compound 0.316 µM, first compound 10 µM) 0.83%. Besides, the viability, T/C reads like this: (second compound 1 µM, first compound 0.0316 µM) 56.1%; (second compound 1 µM, first compound 0.1 µM) 56.2%; (second compound 1 µM, first compound 0.316 µM) 47.7%; (second compound 1 µM, first compound 1 µM) 20.4%; (second compound 1 µM, first compound 3.16 µM) 4.74%; (second compound 1 µM, first compound 10 µM) 2.49%. The viability, T/C is 52.6% (second compound 3.16 µM, first compound 0.0316 µM); 49.8% (second compound 3.16 µM, first compound 0.1 µM); 44.1% (second compound 3.16 µM, first compound 0.316 µM); 11.3% (second compound 3.16 µM, first compound 1 µM); 3.01% (second compound 3.16 µM, first compound 3.16 µM); 1.69% (second compound 3.16 µM, first compound 10 µM). For the same molecule, the viability, T/C (second compound 10 µM, first compound 0.0316 µM) was 46.6%; the viability, T/C (second compound 10 µM, first compound 0.1 µM) was 38.5%; the viability, T/C (second compound 10 µM, first compound 0.316 µM) is 31.9%; the viability, T/C (second compound 10 µM, first compound 1 µM) was 1.3%; the viability, T/C (second compound 10 µM, first compound 3.16 µM) is 2.75%; the viability, T/C (second compound 10 µM, first compound 10 µM) was 0.83%.

The term viability, T/C denotes the result in the treated group divided by that in the control group, in per cent. Broadly, the IC50 is the concentration needed to halve the response being measured.
